target: T1, mAChR M1 (UniProt P11229); experiment: In vitro cellular calcium flux assay, positive allosteric modulator mode, mAChR M1; type: cell-based, human; settings: PAM mode with EC20 carbachol, BHK cells expressing mAChR M1, Examples 76-80 and 82-89 tested in slightly modified procedure
T1 sequence (P11229 1-460): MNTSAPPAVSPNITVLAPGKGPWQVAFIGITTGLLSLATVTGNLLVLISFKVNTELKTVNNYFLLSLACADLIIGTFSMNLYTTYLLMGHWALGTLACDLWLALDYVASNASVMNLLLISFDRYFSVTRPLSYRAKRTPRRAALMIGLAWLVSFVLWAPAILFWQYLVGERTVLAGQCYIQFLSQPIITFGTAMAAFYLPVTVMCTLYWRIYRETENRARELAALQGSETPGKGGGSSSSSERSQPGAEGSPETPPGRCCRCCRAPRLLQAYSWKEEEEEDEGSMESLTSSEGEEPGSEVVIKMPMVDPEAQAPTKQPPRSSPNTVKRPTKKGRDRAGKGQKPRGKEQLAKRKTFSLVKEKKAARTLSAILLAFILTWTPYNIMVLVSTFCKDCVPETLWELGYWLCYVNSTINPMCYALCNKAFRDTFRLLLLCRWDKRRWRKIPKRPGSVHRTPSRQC
Description: Baby hamster kidney cells stably expressing human or rat mAChR M1 to M5 were utilised for primary and selectivity profiling activities. mAChR M2 and M4 cell lines also stably expressed the chimeric Gαqi5 G-protein.
Human mAChR M1, M3, M5 and rat M1 cells were grown in low glucose Dulbecco's Modified Eagle's Medium (DMEM) medium plus heat inactivated 10% fetal bovine serum (HI FBS) and 500 μg/ml hygromycin B^1. Human mAChR M2 and M4 cells were maintained as above with^2 the addition of 500 μg/ml G418 to the media. Cells were maintained in culture at 37° C./5% CO2 and passaged twice weekly by treatment with 0.05% Trypsin/EDTA detachment solution, centrifugation (200 g, 5 min) and re-suspension in fresh media. Following cell expansion, cells were cryopreserved at −80° C. by treatment with 0.05% Trypsin/EDTA detachment solution, centrifugation (200 g, 5 min) and re-suspension of the pellet in freezing media (90% HI FBS/10% DMSO^3) at 15E6 cells/ml^4.
Prior to assaying, cells were prepared by thawing at 37° C. in a water bath, centrifugation (200 g, 5 min) and re-suspension of the pellet in fresh media. 15000 cells per well were seeded in black, clear bottomed 384-well Greiner Bio-One plates in plating medium (DMEM/10% HI FBS) and incubated overnight at 37C/5% CO2.
On the day of the assay, media was removed from each well and replaced with 500 assay buffer (HBSS with 20 mM HEPES and 2.5 mM Probenecid) containing the calcium indicator, Calcium 4 (Molecular Devices). Cells were then incubated at 37° C./5% CO2 for 30 min and at room temperature.
Compound preparation was carried out by generation of 11-point, 1 in 3 serial dilution concentration response curves in 100% DMSO. Compound was then diluted 1 in 65^6 with assay buffer (HBSS with 20 mM HEPES and 2.5 mM Probenecid) prior to the addition of 10 ul^7 to the cells using a Tetra fluorometric imaging plate reader (Molecular Devices)^8. Compound driven increases in intracellular calcium flux was measured as an increase in fluorescence (494Ex, 516Em)^9.
Following agonist data acquisition, cells were then incubated for a further 30 min at room temperature before either an EC20 concentration (to measure positive allosteric modulator activity) or an EC80 concentration (to measure antagonism) of carbachol was added using a fluorometric imaging plate reader. Positive allosteric modulator pEC50 values and antagonist pIC50 values for each compound were then determined. […] Data analysis was carried out using a 4 parameter logistic nonlinear regression model with the XLFIT (IDBS) excel add-in^10.
^1-10Examples 76-80 and 82-89 were tested in a slightly modified procedure. The points of modification and the alternate reagents, concentrations or equipment employed in these examples were: ^1200 μg/ml hygromycin B; ^2G418 not added; ^3CELLBANKER 1; ^410E6; ^540 μl; ^61 in 99; ^720 μl; ^8FDSS6000 (Hamamatsu Photonics); ^9(480Ex, 540Em); 10Spotfire (TIBCO).

SMILES | pEC50 for positive allosteric modulation
O=C(N[C@H]1CCCC[C@@H]1CO)c1cn(Cc2ccc(F)cc2)c2cccnc12 (racemic) [Example 18, 1-(4-Fluorobenzyl)-N-(trans-2-(hydroxymethyl)cyclohexyl)-1H-pyrrolo[3,2-b]pyridine-3-carboxamide] | 6.1
C[C@H]1COCC[C@@H]1NC(=O)c1cn(Cc2ccc(F)cc2)c2cccnc12 (racemic) [Example 19, 1-(4-Fluorobenzyl)-N-(trans-3-methyltetrahydro-2H-pyran-4-yl)-1H-pyrrolo[3,2-b]pyridine-3-carboxamide] | 6.0
C[C@H]1CCCC[C@@H]1NC(=O)c1cn(Cc2ccc(F)cc2)c2cccnc12 (racemic) [Example 20, 1-(4-Fluorobenzyl)-N-(trans-2-methylcyclohexyl)-1H-pyrrolo[3,2-b]pyridine-3-carboxamide] | 6.1
O=C(N[C@H]1CCC[C@@H]1O)c1cn(Cc2ccc(F)cc2)c2cccnc12 (racemic) [Example 27, 1-(4-Fluorobenzyl)-N-(trans-2-hydroxycyclopentyl)-1H-pyrrolo[3,2-b]pyridine-3-carboxamide] | 6.1
O=C(N[C@H]1CCCCC[C@@H]1O)c1cn(Cc2ccc(F)cc2)c2cccnc12 (racemic) [Example 28, 1-(4-Fluorobenzyl)-N-(trans-2-hydroxycycloheptyl)-1H-pyrrolo[3,2-b]pyridine-3-carboxamide] | 6.6
O=C(N[C@@H]1CCCC[C@H]1O)c1cn(Cc2ccc(-c3ccc(F)cc3)cc2)c2cccnc12 (racemic) [Example 46, 1-((4′-Fluoro-[1,1′-biphenyl]-4-yl)methyl)-N-(trans-2-hydroxycyclohexyl)-1H-pyrrolo[3,2-b]pyridine-3-carboxamide] | 6.5
O=C(NC1CCCOC1)c1cn(Cc2ccc(-n3cccn3)cc2)c2cccnc12 (racemic) [Example 49, 1-(4-(1H-Pyrazol-1-yl)benzyl)-N-(tetrahydro-2H-pyran-3-yl)-1H-pyrrolo[3,2-b]pyridine-3-carboxamide] | 5.6
O=C(N[C@@H]1CCC(F)(F)C[C@H]1O)c1cn(Cc2ccc(F)cc2)c2cccnc12 (single isomer, unassigned) [Example 35, N-(trans-4,4-Difluoro-2-hydroxycyclohexyl)-1-(4-fluorobenzyl)-1H-pyrrolo[3,2-b]pyridine-3-carboxamide] | 6.1
O=C(N[C@H]1CCC(F)(F)C[C@H]1O)c1cn(Cc2ccc(F)cc2)c2cccnc12 (single isomer, unassigned) [Example 36, N-(cis-4,4-Difluoro-2-hydroxycyclohexyl)-1-(4-fluorobenzyl)-1H-pyrrolo[3,2-b]pyridine-3-carboxamide] | 6.3
Cc1ccnc2c(C(=O)N[C@H]3CCOC[C@@H]3O)cn(Cc3ccc(F)cc3)c12 (single isomer, unassigned) [Example 82, 1-(4-Fluorobenzyl)-N-(trans-3-hydroxytetrahydro-2H-pyran-4-yl)-7-methyl-1H-pyrrolo[3,2-b]pyridine-3-carboxamide] | 7.8
COc1ccc(Cn2cc(C(=O)N[C@H]3CCOC[C@@H]3O)c3nccc(C)c32)cc1 (single isomer, unassigned) [Example 83, 1-(4-Methoxybenzyl)-N-(trans-3-hydroxytetrahydro-2H-pyran-4-yl)-7-methyl-1H-pyrrolo[3,2-b]pyridine-3-carboxamide] | 8.0
COc1ccc(Cn2cc(C(=O)N[C@H]3CCOC[C@@H]3O)c3nccc(C)c32)cc1F (single isomer, unassigned) [Example 84, 1-(3-Fluoro-4-methoxybenzyl)-N-(trans-3-hydroxytetrahydro-2H-pyran-4-yl)-7-methyl-1H-pyrrolo[3,2-b]pyridine-3-carboxamide] | 7.9
COc1cc(Cn2cc(C(=O)N[C@H]3CCOC[C@@H]3O)c3nccc(C)c32)ccn1 (single isomer, unassigned) [Example 85, N-(trans-3-Hydroxytetrahydro-2H-pyran-4-yl)-1-((2-methoxypyridin-4-yl)methyl)-7-methyl-1H-pyrrolo[3,2-b]pyridine-3-carboxamide] | 7.3
O=C(N[C@@H]1CCOC[C@H]1O)c1cn(Cc2cccc(F)c2)c2c(Cl)ccnc12 (single isomer, unassigned) [Example 86, 7-Chloro-1-(3-fluorobenzyl)-N-(trans-3-hydroxytetrahydro-2H-pyran-4-yl)-1H-pyrrolo[3,2-b]pyridine-3-carboxamide] | 7.6
COc1ccc(Cn2cc(C(=O)N[C@H]3CCOC[C@@H]3O)c3nccc(Cl)c32)cc1 (single isomer, unassigned) [Example 87, 7-Chloro-1-(4-methoxybenzyl)-N-(trans-3-hydroxytetrahydro-2H-pyran-4-yl)-1H-pyrrolo[3,2-b]pyridine-3-carboxamide] | 7.9
N#Cc1ccnc2c(C(=O)N[C@H]3CCCC[C@@H]3O)cn(Cc3ccc(C(F)(F)F)cc3)c12 [Example 33, 7-Cyano-N-((1S,2S)-2-hydroxycyclohexyl)-1-(4-(trifluoromethyl)benzyl)-1H-pyrrolo[3,2-b]pyridine-3-carboxamide] | 7.0
N#Cc1ccc2c(n1)c(C(=O)N[C@H]1CCCC[C@@H]1O)cn2Cc1ccc(-n2cccn2)cc1 [Example 41, 1-(4-(1H-Pyrazol-1-yl)benzyl)-5-cyano-N-((1S,2S)-2-hydroxycyclohexyl)-1H-pyrrolo[3,2-b]pyridine-3-carboxamide] | 6.5
Cn1cnc(-c2ccc(Cn3cc(C(=O)N[C@H]4CCCC[C@@H]4O)c4ncccc43)cc2)c1 [Example 43, N-((1S,2S)-2-Hydroxycyclohexyl)-1-(4-(1-methyl-1H-imidazol-4-yl)benzyl)-1H-pyrrolo[3,2-b]pyridine-3-carboxamide] | 8.0
N#Cc1ccc(Cn2cc(C(=O)N[C@H]3CCCC[C@@H]3O)c3nccc(Cl)c32)cn1 [Example 70, 7-Chloro-1-((6-cyanopyridin-3-yl)methyl)-N-((1S,2S)-2-hydroxycyclohexyl)-1H-pyrrolo[3,2-b]pyridine-3-carboxamide] | 7.0
O=C(N[C@H]1CCCC[C@@H]1O)c1cn(Cc2ccc(F)c(F)c2)c2cccnc12 [Example 94, 1-(3,4-difluorobenzyl)-N-((1S,2S)-2-hydroxycyclohexyl)-1H-pyrrolo[3,2-b]pyridine-3-carboxamide] | 6.6

Source: patent US20150094328A1, “4-Azaindole Derivatives” (Eisai R&D Management Co., Ltd., priority 2013, published 2015)
